Patent US12661410B2, “Compounds for targeted degradation of RET” (C4 Therapeutics, Inc., priority 2020, dated 2026)
Substitutions are numbered along the chain they refer to. Like-named read-outs stand apart in the source and are kept apart here.

Assays:
[1] = molecular target: T1, RET(KD: 658-1114 G810R) (Homo sapiens, UniProt P07949, G810R); test: HiBiT-Degradation, RET G810R degradation assay (Nano-Glo HiBiT Lytic), 293T.165 cells; type: cell-based; conditions: for Emax / DC50: 6.0 hours
T1 construct: 658-1114; expressed in transfected cells; host or cells: 293T.165 (293T cells, generated in-house)
T1 sequence (P07949 658-1114 G810R): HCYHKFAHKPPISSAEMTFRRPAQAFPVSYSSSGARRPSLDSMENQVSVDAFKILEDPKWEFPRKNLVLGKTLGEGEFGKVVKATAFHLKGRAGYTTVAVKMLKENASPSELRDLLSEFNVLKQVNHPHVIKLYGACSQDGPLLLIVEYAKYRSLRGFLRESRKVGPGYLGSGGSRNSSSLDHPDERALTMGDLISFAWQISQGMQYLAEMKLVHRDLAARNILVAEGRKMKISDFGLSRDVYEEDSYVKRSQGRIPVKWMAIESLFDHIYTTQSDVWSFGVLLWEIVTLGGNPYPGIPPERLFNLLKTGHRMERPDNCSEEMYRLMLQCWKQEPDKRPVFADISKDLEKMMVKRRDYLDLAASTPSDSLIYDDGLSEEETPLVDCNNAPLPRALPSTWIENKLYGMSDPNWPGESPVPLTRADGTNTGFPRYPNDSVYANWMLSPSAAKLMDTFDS
Procedure, shortened: (§1)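 Engineered 293T cells carry a HiBiT tag on the RET kinase domain, either wild type (line 293T.144) or G810R (line 293T.165). Compounds act for 6 h across a 10 μM-top, half-log 11-point range. Lytic HiBiT luminescence gives remaining protein, fitted for DC50 and Emax.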

[2] = molecular target: T2, RET (658-1114) (Homo sapiens, UniProt P07949); test: HiBiT-Degradation, RET wild-type degradation assay (Nano-Glo HiBiT Lytic), 293T.144 cells; type: cell-based; conditions: for DC50 / Emax: 6.0 hours
T2 construct: 658-1114; expressed in transfected cells; host or cells: 293T.144 (293T cells, generated in-house)
T2 sequence (P07949 658-1114): T1 sequence (P07949 658-1114 G810R) with R153G
Procedure, shortened: as §1

[3] = % remaining protein, read-out: 293T.165 RET(KD: 658-1114 G810R) 6.0 hours (Emax)
[4] = half-maximal degradation concentration, read-out: 293T.165 RET(KD: 658-1114 G810R) 6.0 hours (DC50)
[5] = HiBiT-Degradation, read-out: 293T.165 RET(KD: 658-1114 G810R) 6.0 hours (DC50)
[6] = HiBiT-Degradation, read-out: 293T.144 RET (658-1114) 6.0 hours (DC50)
[7] = HiBiT-Degradation, read-out: 293T.144 RET (658-1114) 6.0 hours (Emax)
[8] = RET G810R, read-out: HiBiT-Degradation 293T.165 RET(KD: 658-1114 G810R) 6.0 hours (DC50)
[9] = RET G810R, read-out: HiBiT-Degradation 293T.165 RET(KD: 658-1114 G810R) 6.0 hours (Emax)
[10] = RET wild-type, read-out: HiBiT-Degradation 293T.144 RET (658-1114) 6.0 hours (DC50)
[11] = RET wild-type, read-out: HiBiT-Degradation 293T.144 RET (658-1114) 6.0 hours (Emax)

| SMILES | Emax [1, 3] | DC50 [1, 4] | 293T.165 RET(KD: 658-1114 G810R) 6.0 hours (Emax) ([1]; HiBiT-Degradation) | 293T.165 RET(KD: 658-1114 G810R) 6.0 hours (IP) [nM] ([1]; HiBiT-Degradation) | DC50 [1, 5] | 293T.144 RET (658-1114) 6.0 hours (IP) [nM] ([2]; HiBiT-Degradation) | DC50 [2, 6] | Emax [2, 7] | 293T.165 RET(KD: 658-1114 G810R) 6.0 hours (IP) [nM] [1] | 293T.144 RET (658-1114) 6.0 hours (IP) [nM] [2] | Emax ([2]; % remaining protein, read-out: 293T.144 RET (658-1114) 6.0 hours (Emax)) | DC50 ([2]; half-maximal degradation concentration, read-out: 293T.144 RET (658-1114) 6.0 hours (DC50)) | HiBiT-Degradation 293T.165 RET(KD: 658-1114 G810R) 6.0 hours (IP) [nM] ([1]; RET G810R) | DC50 [1, 8] | Emax [1, 9] | HiBiT-Degradation 293T.144 RET (658-1114) 6.0 hours (IP) [nM] ([2]; RET wild-type) | DC50 [2, 10] | Emax [2, 11] |
| --- | --- | --- | --- | --- | --- | --- | --- | --- | --- | --- | --- | --- | --- | --- | --- | --- | --- | --- |
| N#Cc1cnn2cc(-c3cnn(C4CCN(C(=O)CN5CCC(c6ccc(OC7CCC(=O)NC7=O)cc6F)CC5)CC4)c3)nc(-c3ccc(N4CCN(Cc5cc(F)ccn5)CC4)cc3)c12 (centres unmarked) [Compound 38, 6-(1-(1-(2-(4-(4-((2,6-Dioxopiperidin-3-yl)oxy)-2-fluorophenyl)piperidin-1-yl)acetyl)piperidin-4-yl)-1H-pyrazol-4-yl)-4-(4-(4-((4-fluoropyridin-2-yl)methyl)piperazin-1-yl)phenyl)pyrazolo[1,5-a]pyrazine-3-carbonitrile] | < 50% | < 100 nM | +++ (<50% = +++) | ++++ (< 50 nM = ++++) | < 100 nM | ++++ (< 50 nM = ++++) | < 50 nM | < 30% |  |  |  |  |  |  |  |  |  |  |
| CCC1(C(=O)NC(C)C)CCN(c2ccc(-c3nc(-c4cnn(C5CCN(C(=O)CC6(O)CCN(c7cc(OC)c(NC8CCC(=O)NC8=O)cc7F)CC6)CC5)c4)cn4ncc(C#N)c34)cn2)CC1 (centres unmarked) [Compound 91, 1-[5-[3-cyano-6-[1-[1-[2-[1-[4-[(2,6-dioxo-3-piperidyl)amino]-2-fluoro-5-methoxy-phenyl]-4-hydroxy-4-piperidyl]acetyl]-4-piperidyl]pyrazol-4-yl]pyrazolo[1,5-a]pyrazin-4-yl]-2-pyridyl]-4-ethyl-N-isopropyl-piperidine-4-carboxamide] | < 30% | < 50 nM |  |  |  |  |  |  | ++++ (<50 nM = ++++) | ++++ (<50 nM = ++++) | < 30% | < 50 nM |  |  |  |  |  |  |
| N#Cc1cnn2cc(-c3ccc(N4CCN(C(=O)CN5CCC(c6ccc(NC7CCC(=O)NC7=O)cc6F)CC5)CC4)cc3)nc(-c3ccc(N4CC5CC(C4)N5Cc4ccccc4)nc3)c12 (centres unmarked) [Compound 54, 4-[6-(6-benzyl-3,6-diazabicyclo[3.1.1]heptan-3-yl)-3-pyridyl]-6-[4-[4-[2-[4-[4-[(2,6-dioxo-3-piperidyl)amino]-2-fluoro-phenyl]-1-piperidyl]acetyl]piperazin-1-yl]phenyl]pyrazolo[1,5-a]pyrazine-3-carbonitrile] | < 30% | < 100 nM | ++++ (< 30% = ++++) | ++++ (< 50 nM = ++++) | < 100 nM | ++++ (< 50 nM = ++++) | < 50 nM | < 30% |  |  |  |  |  |  |  |  |  |  |
| COc1ccnc(CN2C3CC2CN(c2ccc(-c4cc(-c5cnn(C6CCN(C(=O)CN7CCC(c8ccc(NC9CCC(=O)NC9=O)cc8F)CC7)CC6)c5)cn5ncc(C#N)c45)cn2)C3)c1 (centres unmarked) [Compound 71, 6-[1-[1-[2-[4-[4-[(2,6-dioxo-3-piperidyl)amino]-2-fluoro-phenyl]-1-piperidyl]acetyl]-4-piperidyl]pyrazol-4-yl]-4-[6-[6-[(4-methoxy-2-pyridyl)methyl]-3,6-diazabicyclo[3.1.1]heptan-3-yl]-3-pyridyl]pyrazolo[1,5-a]pyridine-3-carbonitrile] | < 30% | < 100 nM |  |  |  |  |  |  |  |  |  |  | ++++ (< 50 nM = ++++) | < 100 nM | < 30% | ++++ (< 50 nM = ++++) | < 50 nM | < 30% |
| CC(C)NC(=O)C1(C)CCN(c2ccc(-c3cc(-c4cnn(CCCCCCN5CCC(c6ccc7c(N8CCC(=O)NC8=O)nn(C)c7c6)CC5)c4)cn4ncc(C#N)c34)cn2)CC1 [Compound 82, 1-[5-[3-cyano-6-[1-[6-[4-[3-(2,4-dioxohexahydropyrimidin-1-yl)-1-methyl-indazol-6-yl]-1-piperidyl]hexyl]pyrazol-4-yl]pyrazolo[1,5-a]pyridin-4-yl]-2-pyridyl]-N-isopropyl-4-methyl-piperidine-4-carboxamide] | < 30% | < 100 nM |  |  |  |  |  |  |  |  |  |  | ++++ (< 50 nM = ++++) | < 100 nM | < 30% | ++++ (< 50 nM = ++++) | < 50 nM | < 30% |
